Source: patent US10947575B2, “Rapid antimicrobial susceptibility test, based on an analysis of changes in morphology and growth pattern of a microbial cell under different concentrations of various antimicrobial agents, and automated cell image analysis system therefor” (priority 2014, dated 2021)
Read-outs that look alike come from different tables or passages of the source.

Columns and labels:
S. aureus ATCC 29213 [1] = settings: time to result 16~20 hr; cited from earlier work
E. coli ATCC 25922 [2] = assay: AST by analysis of changes in morphology and growth pattern of a microbial cell (MAC 2.0 chip imaging); format: cell-based; settings: Normal / Filament / Swelling
From the text: (§1) Four reference strains (E. coli ATCC 25922, S. aureus ATCC 29213, P. aeruginosa ATCC 27853, and E. faecalis ATCC 29212) were used as objective strains, in accordance with Clinical and Laboratory Standards Institute (CLSI) guidelines. […] The bacterial cell in MAC 2.0TM (QuantaMatrix) was monitored through a S Plan Fluor ELWD 60X (NA 1.49) lens of an inverted optical microscope (Eclipse Ti-Nikon, IX71-Olympus) provided in a heating system, and then, an electron multiplying CCD camera (QuantEM:512SC Photometrics for Eclipse Ti) was used to obtain images of a region where is adjacent to an interface between the agarose well of MAC 2.0TM and the antimicrobial agents well, over time.

S. aureus ATCC 29213 [3] = assay: as above; format: cell-based; settings: RRG = relatively rapid growth, RSG = relatively slow growth
From the text: as §1

E. faecalis ATCC 29212 [4] = assay: as above; format: cell-based; settings: RRG = relatively rapid growth, RSG = relatively slow growth
From the text: as §1

E. faecalis ATCC 29212 [5] = settings: time to result 16~20 hr, cited from earlier work
E. coli ATCC 25922 [6] = settings: time to result 16~20 hr; cited from earlier work
E. coli ATCC 25922 [7] = assay: MIC by the proposed method (SCMA), from morphology and growth pattern changes; format: cell-based; settings: time to result 3 hr
From the text: (§2) The bacterial cell in MAC 2.0™ (QuantaMatrix) was monitored through a S Plan Fluor ELWD 60X (NA 1.49) lens of an inverted optical microscope (Eclipse Ti—Nikon, IX71—Olympus) provided in a heating system, and then, an electron multiplying CCD camera (QuantEM:512SC Photometrics for Eclipse Ti) was used to obtain images of a region where is adjacent to an interface between the agarose well of MAC 2.0™ and the antimicrobial agents well, over time. […] In the AST method according to the inventive concept, minimal inhibitory concentration (MIC) was measured using the changes in morphology and growth pattern of the four reference strains (i.e., E. coli ATCC 25922, S. aureus ATCC 29213, P. aeruginosa ATCC 27853, and E. faecalis ATCC 29212) and was compared with MIC quality control (QC) per CLSI guidelines.

S. aureus ATCC 29213 [8] = assay: as above; format: cell-based; settings: time to result 4 hr
From the text: as §2

E. faecalis ATCC 29212 [9] = assay: as above; format: cell-based; settings: time to result 4 hr
From the text: as §2

P. aeruginosa ATCC 27853 [10] = assay: AST by analysis of changes in morphology and growth pattern of a microbial cell (MAC 2.0 chip imaging); format: cell-based; settings: Normal / Filament / Swelling
From the text: as §1

P. aeruginosa ATCC 27853 [11] = settings: time to result 16~20 hr; cited from earlier work
P. aeruginosa ATCC 27853 [12] = assay: MIC by the proposed method (SCMA), from morphology and growth pattern changes; format: cell-based; settings: time to result 3 hr
From the text: as §2

Compound | CLSI QC range (MIC) (S. aureus ATCC 29213 [1]) | Criteria (change in morphology and growth pattern) (E. coli ATCC 25922 [2]) | Criteria (change in morphology and growth pattern) (S. aureus ATCC 29213 [3]) | Criteria (change in morphology and growth pattern) (E. faecalis ATCC 29212 [4]) | CLSI QC range (MIC) (E. faecalis ATCC 29212 [5]) | CLSI QC range (MIC) (E. coli ATCC 25922 [6]) | SCMA Results (MIC) (E. coli ATCC 25922 [7]) | SCMA Results (MIC) (S. aureus ATCC 29213 [8]; unit assumed) [µg/mL] | SCMA Results (MIC) (E. faecalis ATCC 29212 [9]) | Criteria (change in morphology and growth pattern) (P. aeruginosa ATCC 27853 [10]) | CLSI QC range (MIC) (E. faecalis ATCC 29212 [5]; unit assumed) [µg/mL] | CLSI QC range (MIC) (P. aeruginosa ATCC 27853 [11]) | SCMA Results (MIC) (P. aeruginosa ATCC 27853 [12]) | SCMA Results (MIC) (E. coli ATCC 25922 [7]; unit assumed) [µg/mL] | SCMA Results (MIC) (S. aureus ATCC 29213 [8])
CC1(C)S[C@@H]2[C@H](NC(=O)[C@H](N)c3ccccc3)C(=O)N2[C@H]1C(=O)O [Ampicillin] | 0.5~2 | Filament | Normal | Normal | 0.5~2 | 2~8 | 2~4 | 1 | 0.5~1 | – | – | – | – | – | –
CN[C@H](CC(C)C)C(=O)N[C@H]1C(=O)N[C@@H](CC(N)=O)C(=O)N[C@H]2C(=O)N[C@H]3C(=O)N[C@H](C(=O)N[C@H](C(=O)O)c4cc(O)cc(O)c4-c4cc3ccc4O)[C@H](O)c3ccc(c(Cl)c3)Oc3cc2cc(c3O[C@@H]2O[C@H](CO)[C@@H](O)[C@H](O)[C@H]2O[C@H]2C[C@](C)(N)[C@H](O)[C@H](C)O2)Oc2ccc(cc2Cl)[C@H]1O [Vancomycin] | 0.5~2 | – | normal | Normal growth | 1~4 | – | – | 1 | 2~4 | – | – | – | – | – | –
Gentamicin | 0.12~1 | Normal | Normal growth | Normal | – | 0.25~1 | – | – | ≤ 500 µg/mL | Normal growth | ≤ 500 | 0.5~2 | 0.5~1 | 0.25 | 0.25~0.5
Penicillin | 0.25~2 | – | Normal | Normal | 1~4 | – | – | 0.5 | 1~2 | – | – | – | – | – | –
